Here are results for 3 substances from patent publication US20020165127A1, “Methods for treating insulin resistance and identifying patients at risk for the disease” (SuperGen, Inc., priority 1996, published 2002).

The test system of experiment [1] is patient suffering from reactive hypoglycemia. In words: Treatment of reactive hypoglycemia. The experiment is classed as in vivo, human. As to conditions: long-acting controlled release formulation; for IGF-2 levels: serum. Here is the method:
A patient suffering from reactive hypoglycemia has a serum sample evaluated for IGF-1 and IGF-2 levels. IGF-1 levels are normal but IGF-2 levels are more than two standard deviations below the expected levels for a person of the same age, sex and body weight. The patient is treated by administering IGF-2 or 22K-GH in a long-acting controlled release formulation.

The test system of another experiment is IGF-1 and IGF-2. The note with it: cited from earlier work.
The next experiment deals with bp3 (Homo sapiens, UniProt P17936). As to conditions: cited from earlier work.
Chain of bp3 (P17936 28-291): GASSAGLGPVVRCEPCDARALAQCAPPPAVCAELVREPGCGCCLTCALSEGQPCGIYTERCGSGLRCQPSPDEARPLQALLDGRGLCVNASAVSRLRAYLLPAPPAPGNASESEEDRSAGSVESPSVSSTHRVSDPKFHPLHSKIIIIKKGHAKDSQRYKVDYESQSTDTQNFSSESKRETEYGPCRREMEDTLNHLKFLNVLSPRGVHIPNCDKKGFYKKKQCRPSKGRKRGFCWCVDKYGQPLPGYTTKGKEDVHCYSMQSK

Turning to “22K-GH: the larger human growth hormone isoform”, in experiment [1], the hypoglycemic episodes result is listed as “less frequent” and the IGF-2 levels result is given as “increased”. Moreover, in the experiment with IGF-1 and IGF-2, the “effects on the synthesis and secretion of IGFs” value is “stimulate both IGF-1 and IGF-2”.
Consider “IGF-1: IGF polypeptide in serum that binds bp3”, for which, in the experiment with bp3, the “affinity to bp3” value is “equal affinity”.
Consider “IGF-2: IGF polypeptide; competes with insulin for binding to the insulin receptor”, for which, in experiment [1], the hypoglycemic episodes result is recorded as “less frequent” and the IGF-2 levels entry is given as “increased”. Besides, the “affinity to bp3” value in the experiment with bp3 is “equal affinity”.
